Laboratory results: patent US7648978B2, “Small molecule modulators of cytokine activity” (Angion Biomedica Corp., priority 2004, dated 2010)

What was measured:
Format in all cases: cell-based
[1] = tested on: Endothelial cells (HUVECs); assay: HUVEC proliferation (3H-thymidine incorporation); details: Homo sapiens, Table 1, read-out: HUVEC ED50
Description: (§1) a. Proliferation. The following assay was performed to assess the activity of the compounds of the invention in cell proliferation. Endothelial cells (HUVECs) were seeded in 96-well plates at a density of 10,000 cells per well in the normal growth medium (EGM-2-Clonetics) containing 2% fetal bovine serum, FGF, VEGF, IGF, ascorbic acid, EGF, GA, heparin and hydrocortisone. The cells were grown normally in the growth medium for 24 hr at 37° C. and 5% CO2. The cells were then rinsed with RPMI-1% BSA and starved for 1-2 hr. The stock solutions of the compounds of the invention were made at a concentration of 10 mg/ml in DMSO and diluted in RPMI-1% BSA at final concentrations of 0.001 uM to 50 uM. The cells were then washed and treated with the compounds and incubated for another 20 hr at 37° C. Then ^3H thymidine (0.5 microgram/ml in RPMI-BSA) was added to the cells and incubated at 37° C. for 4 hr. The unincorporated thymidine was removed by washing the cells four times with 1×PBS. Then the cells were lysed with 0.5M NaOH for 30 min and the radioactivity counted in the beta counter. A similar proliferation assay using monkey bronchial epithelial cells (4MBR-5) and oligodendrocyte cells was also employed.

oligodendrocytes = assay: Oligodendrocyte proliferation; details: Mus musculus, Table 2, read-out: Oligodendrocyte ED50
Description: as §1
e. Stimulation of Oligodendrocyte Proliferation. Mouse primary oligodendrocytes (Celprogen, Calif.) were seeded in 96-well plates at 5000 cells/well in serum-free medium for 16 hours. Cells were treated with test compound or HGF/SF (positive control) for 16-24 hours. WST1 cell proliferation reagent (Roche, N.J.) was added to oligodendrocytes, and incubation was continued for another 4-5 hours. Cells with WST1 reagent were read using a plate reader at an OD of 490 nm.

monocytes / HUVECs = assay: Monocyte migration and binding to CRP-treated HUVECs; VCAM-1 and MCP-1 expression; details: CRP 25 ug/ml, test compound 10 uM or HGF 50 ng/ml
Description: a. Compound treatment decreases monocyte migration and binding to ECs. […] HUVECs were incubated with CRP (25 ug/ml), CRP together with test compound (10 uM) or HGF (50 ng/ml). The cellular extracts with lysis buffer and analyzed for VCAM-1 and MCP-1 expression via Western blot analysis. For Monocyte binding and migration experiments, monocytes were labeled with a fluorescent dye Vybrant Did (Molecular Probes) and treated to the HUVECs treated as above.

Molecule | EC50 [1] [nM] | also measured
O=c1[nH]nc(-c2ccc(N3CCCCCC3)c([N+](=O)[O-])c2)c2ccccc12 [drawing 50] | 2500 | 
CC1CCCN(c2ccc(-c3n[nH]c(=O)c4ccccc34)cc2[N+](=O)[O-])C1 (stereo not shown) | 3000 | 
O=c1[nH]nc(-c2ccc(N3CCCCCC3)c([N+](=O)[O-])c2)c2ccccc12 [drawing 57] |  | EC50 (oligodendrocytes): 200 nM
HGF: Scatter factor / hepatocyte growth factor, a pleiotropic growth factor; used as positive control |  | monocyte migration and binding to endothelial cells (monocytes / HUVECs; FIG. 17): decreased; MCP-1 expression (monocytes / HUVECs; Western blot): decreased; VCAM-1 expression (monocytes / HUVECs; Western blot): decreased
CC1CCN(c2ccc(-c3n[nH]c(=O)c4ccccc34)cc2[N+](=O)[O-])CC1 [drawing 52] | 5000 | 
CC1CCCCN1c1ccc(-c2n[nH]c(=O)c3ccccc23)cc1[N+](=O)[O-] (stereo not shown) | 2000 | 
CCCC1CCN(c2ccc(-c3n[nH]c(=O)c4ccccc34)cc2[N+](=O)[O-])CC1 | 4000 | 
O=c1[nH]nc(-c2ccc(N3CCCCC3)c([N+](=O)[O-])c2)c2ccccc12 [drawing 58] |  | EC50 (oligodendrocytes): 200 nM
CC1CCN(c2ccc(-c3n[nH]c(=O)c4ccccc34)cc2[N+](=O)[O-])CC1 [drawing 59] |  | EC50 (oligodendrocytes): 200 nM
O=c1[nH]nc(-c2ccc(N3CCCCC3)c([N+](=O)[O-])c2)c2ccccc12 [drawing 51] | 10000 | 
CCC1CCCCN1c1ccc(-c2n[nH]c(=O)c3ccccc23)cc1[N+](=O)[O-] (stereo not shown) | 3000 | 
